# No end group written: not given here.
# Columns and labels:
# CD34+ human stem cells = test: CXCL12-induced migration of CD34+ human stem cells; format: cell-based
# Experimental: Peripheral hematopoietic stem (PHS) cells isolated by apheresis of Granulo-cyte colony-stimulating factor (G-CSF) treated individuals were obtained from the Institute of Transfusion Medicine, University Hospital Ulm). Frozen cells were carefully thawed in 1/10 diluted 10% ACD-A buffer (provided by the Institute of Transfusion Medicine) in PBS. 1×10^5/200 μl PHS cells were placed into the upper chamber of transwell plates. Then, 10 nM CXCL12 and/or various concentrations of the peptide of SEQ ID NO 16 or its derivatives in 600 μl culture medium were placed to each well. After 3 h, the chemotaxis was measured using the CellTiter-Glo Luminescent Cell Viability Assay as described above. All values represent mean numbers of migrated cells relative to CXCL12 only treated cells from a triplicate experiment±SD.
# X4 HIV-1 strains = system: X4 HIV-1 strains
# Experimental: (§1) Antiviral screening was performed using the X4 HIV-1 NL4-3 molecular clone.
# (§2) HIV-1, HIV-2 and SIV molecular clones differing in coreceptor tropism were generated by transient transfection of 293T cells with proviral DNA by the calcium phosphate method (CalPhos™ Mammalian Transfection Kit, Clon-tech). After overnight incubation, the transfection mixture was replaced by DMEM medium supplemented with 10% FCS, and virus stocks were harvested 48 hrs post-transfection. Subsequently, the culture supernatant was centrifuged for 5 min at 3000 rpm to remove cell debris. The resulting virus stock was quantified by p24 (HIV) or p27 (SIV) antigen ELISA. Virus stocks were either used immediately or stored in aliquots at −80° C.
# (§3) TZM-bl reporter cells containing the LacZ reporter gene under the control of the HIV-1 promoter were seeded in 96-well F-bottom microtiter plates (Greiner Bio-One). On the following day, the cells were preincubated with various dilutions of the peptide of SEQ ID NO 16 or its derivatives for 1 hour and subsequently infected with HIV-1, HIV-2, and SIV. Infection rates were determined after 2 days using the one-step Tropix Gal-Screen Kit, as recommended by the manufacturer.
# X4 tropic HIV-1 NL4-3 = conditions: blocking X4 tropic HIV-1 NL4-3 infection
# Experimental: as §1, §2, §3
# X4 HIV-2 strains = test: TZM-bl infection assay, X4 HIV-2; format: cell-based; conditions: effects relatively modest
# Experimental: as §2, §3
# Staphylococus aureus = test: Antibacterial activity against Staphylococcus; format: cell-based
# CXCR4 [1] = target: T1, CXCR4 (Mus musculus, UniProt P70658); test: Progenitor cell mobilization in mice; format: in vivo; conditions: single i.p. administration
# T1 construct: from tissue; host or cells: live mice (C57Bl/6J for mobilization)
# Experimental: C57B1/6J mice (Janvier, Le Genest St. Isle, F R) were housed in the conventional vivarium of the Goethe-University Medical Center, Frankfurt, with food and water ad libitum. Mice received i.p. injections of 200 μL water or normal saline containing 10 mg/mL the peptide of SEQ ID NO 16. Blood was drawn at the indicated times following injection from the check pouch after careful skin disinfection. After hypotonic lysis, leukocytes were incubated in duplicate in cytokine-replete commercially available semi-solid media (3434, Stem Cell Technologies, Vancouver, B C) under standard conditions. CFU—C were scored on day 7, as described (Bönig et al., 2006). CFU—C were normalized to the blood volume incubated. All animal studies were done with permission of the local IACUC, in agreement with AAALAC guidelines.
# DU145 cells = test: Cancer cell invasion assay; format: cell-based
# Experimental: Cell invasion of cancer cells was assayed using a Biocoat Matrigel invasion chamber (BD BioCoat™ Matrigel™ Invasion Chamber) as recommended by the manufacturer. 5×10^4 DU145 cells (ATCC) were suspended in 300 μl serum-free RPMI (Gibco) containing 0.1% BSA (KPL) and then added to the upper chamber. 700 μl serum-free medium with or without 100 nM CXCL12 and various concentrations of the peptide of SEQ ID NO 16 were added to each lower chamber. The chambers were incubated for 24 h at 37° C. in a humid atmosphere of 5% CO2/95% air. The non-invading cells were removed from the upper surface of the membrane by scrubbing. Invaded cells toward the bottom of membrane were quantified using the CellTiter-Glo® Luminescent Cell Viability Assay kit as described above.
# CXCR4 [2] = target: T1, CXCR4; test: Asthma mouse model (OVA challenge); format: in vivo; conditions: mice, i.p., allergen challenge with OVA
# Experimental: Mice were sensitized by intraperitoneal (i.p.) injection on days 0, 1 and 2 of 50 μg ovalbumin (OVA, Sigma-Aldrich, A5503) adsorbed on 2 mg aluminium hydroxide (Sigma-Aldrich, 23918-6) in saline. Mice were challenged by intranasal (i.n.) instillation of 10 μg OVA in 25 μl saline (12.5 μl/nostril) or saline alone for control mice on days 5, 6 and 7 under anesthesia (50 mg/kg ketamine and 3.3 mg/kg xylazine, i.p.). the peptide of SEQ ID NO 16 or ALB409-423 in saline were administered i.p. (16 μmol/kg) two hours before each OVA challenge. Bronchoalveolar lavage (BAL) and differential cell counts were performed 24 h after the last OVA challenge as previously reported in (Rebber et al., 2012).
# CXCR4 [3] = target: T2, CXCR4 (Homo sapiens, UniProt P61073); test: Competition with CXCL12 binding to CXCR4 (real-time fluorescence, eGFP-CXCR4 cells); conditions: read-out: dissociation constant (DC50), competition with CXCL12 binding to CXCR4
# T2 construct: expressed in transfected cells
# Experimental: Anti-human CXCR4 (clone 12G5, IgG2a) or anti-human CXCR7 (clone 9C4) monoclonal antibodies (mAbs) were purchased from R&D Systems (Minneapolis, Minn.). […] The human chemokines CXCL12 and CXCL12-TexasRed were synthesized as described (Valenzuela-Fernandez, et al. 2001). The human chemokine CXCL11 was purchased from Clinisciences SAS (France).
# Experiments were performed using cells stably expressing eGFP-CXCR4, suspended in HEPES-bovine serum albumin buffer (10 mM HEPES, 137.5 mM NaCl, 1.25 mM MgCl2, 1.25 mM CaCl2, 6 mM KCl, 10 mM glucose, 0.4 mM NaH2PO4, 0.1% bovine serum albumin (w/v), pH 7.4) (typically at 10^6 cells/mL). Time-based recordings of the fluorescence emitted at 510 nm (excitation at 470 nm) were performed at 21° C. using a spectrofluorimeter and sampled every 0.3 s. Fluorescence binding measurements were initiated by adding at 30 s 100 nM of CXCL12-TR to the 1 mL cell suspension. For competition experiments, EGFP-CXCR4 expressing cells were preincubated for 10 min in the absence or presence of various concentrations of unlabelled drugs. Then, CXCL12-TR (100 nM) was added and fluorescence was recorded until equilibrium was reached (300 s). Data were analyzed using Kaleidagraph 3.08 software (Synergy Software, Reading, Pa., USA).
# T1 sequence (P70658 whole entry): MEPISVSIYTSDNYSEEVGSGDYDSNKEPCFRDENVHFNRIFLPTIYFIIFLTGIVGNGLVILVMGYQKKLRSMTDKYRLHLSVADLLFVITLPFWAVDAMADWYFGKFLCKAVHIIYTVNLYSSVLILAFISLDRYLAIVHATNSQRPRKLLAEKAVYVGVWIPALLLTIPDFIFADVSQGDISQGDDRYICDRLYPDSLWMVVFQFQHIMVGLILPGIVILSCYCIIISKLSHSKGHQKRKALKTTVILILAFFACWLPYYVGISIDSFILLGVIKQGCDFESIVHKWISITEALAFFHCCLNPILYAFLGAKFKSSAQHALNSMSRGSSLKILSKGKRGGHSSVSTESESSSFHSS
# T2 sequence (P61073 whole entry): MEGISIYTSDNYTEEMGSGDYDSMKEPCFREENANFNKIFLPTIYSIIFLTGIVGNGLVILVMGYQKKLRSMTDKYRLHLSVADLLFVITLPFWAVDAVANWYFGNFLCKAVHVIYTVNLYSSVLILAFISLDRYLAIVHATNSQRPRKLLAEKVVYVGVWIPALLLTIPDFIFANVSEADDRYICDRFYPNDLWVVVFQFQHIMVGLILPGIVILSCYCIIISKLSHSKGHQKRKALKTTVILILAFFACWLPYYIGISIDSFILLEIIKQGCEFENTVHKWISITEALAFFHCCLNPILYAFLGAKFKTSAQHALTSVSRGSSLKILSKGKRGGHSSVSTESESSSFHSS
sequence,measurement,setting,value
"LVRYTKKVPQVSTPTL [Derivative 408-423, LVRYTKKVPQVSTPTL]",CXCL12-induced migration of CD34+ human stem cells,CD34+ human stem cells,suppressed
same,"mean 50% inhibitory concentration (IC50), infection by X4 HIV-1 strains","X4 HIV-1 strains; mean over X4 HIV-1 strains, chemically synthesized peptide",15.8 µg/mL
same,HIV infection after pretreatment of viral target cells (not of virions),X4 HIV-1 strains; pretreatment of target cells,effective reduction
same,IC50,"X4 HIV-1 strains; read-out: mean 50% inhibitory concentration (IC50), infection by X4 HIV-1 strains, corresponding to 15.8 μg/ml",8.6 µM
same,IC50,X4 tropic HIV-1 NL4-3,8.63 µM
same,infection by X4 HIV-2 strains,X4 HIV-2 strains,inhibits infection
same,effects against Staphylococus aureus,Staphylococus aureus,only modest effects
same,mobilization of progenitor cells and neutrophils into the periphery,CXCR4 [1],significant mobilization
same,tumor cell invasion in vitro,DU145 cells,prevented
same,"CXCR4-dependent infiltration of neutrophils, lymphocytes and eosinophils into the airways",CXCR4 [2],significantly reduced
same,infiltration of macrophages,CXCR4 [2],markedly reduced
same,DC50,CXCR4 [3],8 ± 3 µM

# From patent publication US10294272B2, “Peptides with antagonistic activities against natural CXCR4” (Pharis Biotec GmbH, priority 2013, dated 2019)
